In publication PMC4303209, “A novel phosphatidylinositol 3-kinase (PI3K) inhibitor directs a potent FOXO-dependent, p53-independent cell cycle arrest phenotype characterized by the differential induction of a subset of FOXO-regulated genes” (Breast Cancer Research : BCR, 2014):

Tested on: MCF-7 breast cancer cells
Assay: Microarray gene expression analysis (Agilent whole human genome 4 x 44K; compound vs DMSO, LIMMA log2 fold change)
Assay type: cell-based
Details: cell cycle genes

Compound: Oc1cccc(-c2nc(N3CCOCC3)c3oc4ncccc4c3n2)c1 [PI-103]
- TUBB3 log2FC (Gene 10381): -0.59
- ANAPC10 log2FC (Gene 10393): 0.20
- NDRG1 log2FC (Gene 10397): 1.49
- GNB2L1 log2FC (Gene 10399): -0.0332
- PRMT5 log2FC (Gene 10419): -0.13
- MAD2L2 log2FC (Gene 10459): 0.16
- TACC3 log2FC (Gene 10460): -0.29
- CREB3 log2FC (Gene 10488): -0.0661
- MYBBP1A log2FC (Gene 10514): -0.30
- CIB1 log2FC (Gene 10519): -0.08
- SSSCA1 log2FC (Gene 10534): -0.27
- DCTN2 log2FC (Gene 10540): 0.11
- SMC2 log2FC (Gene 10592): 0.63
- ERN2 log2FC (Gene 10595): -0.68
- USP16 log2FC (Gene 10600): 0.68
- HEXIM1 log2FC (Gene 10614): -0.43
- SPAG5 log2FC (Gene 10615): 0.36
- STAMBP log2FC (Gene 10617): 0.27
- TXNIP log2FC (Gene 10628): 2.21
- PDPN log2FC (Gene 10630): -0.0347
- RGS14 log2FC (Gene 10636): 0.71
- CTCF log2FC (Gene 10664): -0.22
- CGRRF1 log2FC (Gene 10668): 0.54
- CGREF1 log2FC (Gene 10669): 0.00665
- USP39 log2FC (Gene 10713): -0.0422
- NUDC log2FC (Gene 10726): -0.38
- PLK4 log2FC (Gene 10733): 0.52
- STAG3 log2FC (Gene 10734): 0.43
- STAG2 log2FC (Gene 10735): 1.19
- NES log2FC (Gene 10763): -0.28
- PLK2 log2FC (Gene 10769): -0.93
- NEK6 log2FC (Gene 10783): -0.68
- SDCCAG8 log2FC (Gene 10806): 0.62
- TUBGCP2 log2FC (Gene 10844): 0.037
- LILRB1 log2FC (Gene 10859): -0.21
- USP19 log2FC (Gene 10869): 0.38
- BLCAP log2FC (Gene 10904): -0.47
- TXNL4A log2FC (Gene 10907): -0.46
- SUGT1 log2FC (Gene 10910): 0.24
- GADD45G log2FC (Gene 10912): -0.19
- EHMT2 log2FC (Gene 10919): 0.25
- BTG3 log2FC (Gene 10950): 0.00788
- MAPRE2 log2FC (Gene 10982): -0.34
- KIF2C log2FC (Gene 11004): 0.44
- TLK2 log2FC (Gene 11011): 0.62
- RAB35 log2FC (Gene 11021): -0.44
- TDRKH log2FC (Gene 11022): 0.0086
- PIM2 log2FC (Gene 11040): -0.54
- UBE2C log2FC (Gene 11065): -0.18
- TRIOBP log2FC (Gene 11078): 0.53
- NUPL2 log2FC (Gene 11097): -0.024
- KATNA1 log2FC (Gene 11104): 0.67
- PRDM4 log2FC (Gene 11108): 0.26
- CIT log2FC (Gene 11113): 0.53
- ZWINT log2FC (Gene 11130): -0.23
- CDC37 log2FC (Gene 11140): -0.17
- LZTS1 log2FC (Gene 11178): -0.98
- WDR6 log2FC (Gene 11180): -0.36
- RASSF1 log2FC (Gene 11186): 0.72
- CEP250 log2FC (Gene 11190): -0.14
- PMF1 log2FC (Gene 11243): -0.18
- DCTN3 log2FC (Gene 11258): 0.31
- TUSC2 log2FC (Gene 11334): -0.50
- OIP5 log2FC (Gene 11339): 0.0365
- MAPRE1 log2FC (Gene 22919): -0.57
- MAPRE3 log2FC (Gene 22924): 0.0211
- TRIM32 log2FC (Gene 22954): -0.32
- TPX2 log2FC (Gene 22974): -0.00173
- AZI1 log2FC (Gene 22994): 0.93
- CEP152 log2FC (Gene 22995): 0.55
- USP33 log2FC (Gene 23032): 0.88
- WAPAL log2FC (Gene 23063): 0.61
- TRIM35 log2FC (Gene 23087): 0.20
- CLASP2 log2FC (Gene 23122): 0.55
- POGZ log2FC (Gene 23126): 0.58
- PHF8 log2FC (Gene 23133): -0.18
- SMC5 log2FC (Gene 23137): -0.36
- FBXL7 log2FC (Gene 23194): 0.0429
- PSME4 log2FC (Gene 23198): -0.07
- RRS1 log2FC (Gene 23212): -0.91
- NUP210 log2FC (Gene 23225): -0.44
- PLCB1 log2FC (Gene 23236): 1.31
- BOP1 log2FC (Gene 23246): -0.18
- NUP160 log2FC (Gene 23279): -0.78
- FBXW11 log2FC (Gene 23291): -0.28
- UBR2 log2FC (Gene 23304): 0.76
- USP22 log2FC (Gene 23326): 0.07
- CLASP1 log2FC (Gene 23332): -0.36
- PPP1R13B log2FC (Gene 23368): 0.0642
- DICER1 log2FC (Gene 23405): -0.87
- SIRT1 log2FC (Gene 23411): 1.17
- ITGB3BP log2FC (Gene 23421): 0.69
- PES1 log2FC (Gene 23481): -0.38
- ZFYVE26 log2FC (Gene 23503): 0.40
- SCRIB log2FC (Gene 23513): 0.03
- CCNDBP1 log2FC (Gene 23582): 0.71
- CD2AP log2FC (Gene 23607): 0.81
- NUP62 log2FC (Gene 23636): -0.63
- RABGAP1 log2FC (Gene 23637): 0.55
- PPP1R15A log2FC (Gene 23645): 0.51
- POLA2 log2FC (Gene 23649): -0.87
- ZNF318 log2FC (Gene 24149): 0.53
- RAD54B log2FC (Gene 25788): 0.42
- NIPBL log2FC (Gene 25836): 0.88
- INTS7 log2FC (Gene 25896): -0.23
- AHCTF1 log2FC (Gene 25909): 0.40
- SIN3A log2FC (Gene 25942): 0.89
- SH2B1 log2FC (Gene 25970): -0.49
- EGFL6 log2FC (Gene 25975): 0.03
- SENP6 log2FC (Gene 26054): 0.54
- FBXO6 log2FC (Gene 26270): 0.37
- FBXO5 log2FC (Gene 26271): 0.49
- NUPR1 log2FC (Gene 26471): 0.07
- AATF log2FC (Gene 26574): -0.41
- CKAP2 log2FC (Gene 26586): 0.63
- HBP1 log2FC (Gene 26959): 2.74
- MLH3 log2FC (Gene 27030): 0.23
- MTBP log2FC (Gene 27085): 0.79
- TJP3 log2FC (Gene 27134): 0.31
- VPS4A log2FC (Gene 27183): -0.29
- PDCD4 log2FC (Gene 27250): 1.70
- APEX2 log2FC (Gene 27301): -0.66
- UBE2S log2FC (Gene 27338): -0.66
- EML4 log2FC (Gene 27436): -0.50
- PPP2R3B log2FC (Gene 28227): 0.28
- MCTS1 log2FC (Gene 28985): -0.21
- HIPK2 log2FC (Gene 28996): -0.14
- BRD7 log2FC (Gene 29117): 0.53
- RACGAP1 log2FC (Gene 29127): 0.55
- UHRF1 log2FC (Gene 29128): -0.33
- PSMC3IP log2FC (Gene 29893): -0.14
- GPSM2 log2FC (Gene 29899): 0.32
- SAC3D1 log2FC (Gene 29901): 0.09
- RPA4 log2FC (Gene 29935): 0.55
- ANAPC4 log2FC (Gene 29945): 0.43
- SERTAD1 log2FC (Gene 29950): -0.75
- CUZD1 log2FC (Gene 50624): 0.31
- PARD6A log2FC (Gene 50855): 0.11
- GMNN log2FC (Gene 51053): -0.12
- RPS27L log2FC (Gene 51065): 0.28
- MLXIPL log2FC (Gene 51085): 0.34
- SBDS log2FC (Gene 51119): 0.46
- DYNC1LI1 log2FC (Gene 51143): 0.52
- ING4 log2FC (Gene 51147): 1.59
- TUBE1 log2FC (Gene 51175): 0.0372
- LEF1 log2FC (Gene 51176): -0.89
- HERC5 log2FC (Gene 51191): 0.75
- NUSAP1 log2FC (Gene 51203): 0.74
- DUSP13 log2FC (Gene 51207): 0.0185
- WAC log2FC (Gene 51322): 0.91
- DACT1 log2FC (Gene 51339): 0.04
- FZR1 log2FC (Gene 51343): -0.32
- TAOK3 log2FC (Gene 51347): 1.14
- PRKAG2 log2FC (Gene 51422): -0.54
- SNX9 log2FC (Gene 51429): 0.42
- ANAPC7 log2FC (Gene 51434): -0.32
- LCMT1 log2FC (Gene 51451): 0.00313
